Entries after “also recorded” stand apart in the source; their conditions may differ. Positions of bridges follow the written chain, without caps; N, C: chain ends. Non-standard residues stand in square brackets, D forms with d. No end group written: not given here.
Assays:
[1] = test system: 12 cell lines with different origins; test: Whole cell bead binding assay, 12 cell lines of different origins; parameters: species or system human
[2] = test system: cells isolated from urine specimens of patients actively treated with BCG intravesical therapy; type: binding, human; details: 4 consecutive patients with no evidence of bladder cancer
[3] = test system: parental K562 cells or cells transfected other integrins; test: Bead binding to parental K562 cells or cells transfected with other integrins; details: OBOC beads bearing PLZ4
Experimental: Here, OBOC beads bearing PLZ4 peptides on the surface were incubated with K562 cells transfected with various integrins. K562 cells express endogenous a501 integrin. […] Several other ligands obtained from the initial screening also contain the DGR motif. […] To identify which amino acids are involved in determining cell binding and binding specificity, “alanine walk” was performed combined with the rainbow bead coding methods (Luo, et al., J Comb Chem, (2008) 10: 599-604). The amino acids aspartic acid (D, the X2 position), arginine (R, X4) and phenylalanine (F, X7) are important for cell binding. Replacement of any of these amino acids with alanine completely abolished the binding of the peptides to 5637 cells (FIG. 6B). […] Methionine at the X5 position could be replaced to many other amino acids without compromising the binding affinity. Based on this analysis, the three amino acids (D, G and R) at the N-terminus together with the two amino acids (G and F) at the C-terminus determine the binding specificity. Therefore, the binding pocket may be in the clover shape: one for the N-terminal three amino acids, one for the C-terminal two amino acids and a middle pocket. So w the depth of the middle binding pocket by adding different numbers of glycine residue to the X5 position. […]

K9TCC-PU = test: Binding affinity by PLZ4-biotin / avidin-HRP on fixed K9TCC-PU cells; parameters: species or system canine; details: restated in b239 without cell line, read-out: Kd50
Experimental: (§1) FIG. 8A-B. Binding affinity and biological effects of PLZ4 against canine TCC cell lines. A. Binding affinity of PLZ4 against K9TCC-PU and K9TCC-PU-In. Twenty thousands of K9TCC-PU and K9TCC-PU-In were seeded in 96 well plates. After culture for 24 hours, cells were fixed and incubated with different concentrations of PLZ4-biotin for 1.5 hours following avidin-HRP for another 1 hour. Cells treated with avidin-HRP only were served as background control. The color was developed using TMB substrate and read by ELISA readers. The experiment was performed in triplicates and repeated for 3 times. The mean value of the 3 experiments were shown. B. Biological effects of PLZ4 on canine TCC cell lines. Ten thousand K9TCC-PU-In and K9TCC-PU cells were seeded in the 96 well plates and treated with increasing concentrations of PLZ4 or PBS for 2 days. The cell proliferation assay was assessed by WST-8 assay per manufacturer's protocol. Cells treated with PBS were used as 100% control. Each group was performed in triplicate, repeated for 3 times. Mean values at each concentration are presented.
(§2) To further quantify the binding affinity, K9TCC-PU and K9TCC-PU-In cells were seeded in 96 well plates, fixed, and incubated with increasing concentrations of PLZ4-biotin followed by avidin-HRP. […]

[4] = test system: bladder TCC cell lines 5637, T24 and TCCSUP; test: Whole cell bead binding assay, bladder TCC cell lines; parameters: species or system human; details: peptide on OBOC beads; 5637, T24, TCCSUP
Experimental: The beads were washed extensively with double-distilled water and phosphate-buffered saline (PBS) before screening. Bladder cancer cells and normal urothelial cells were detached from culture dishes with trypsin/EDTA or a Detach kit (PromoCell, Heidelberg, Germany), washed with their corresponding culture medium, resuspended at 10^6 cells/ml and incubated with OBOC beads in Petri dishes in a humidified CO2 incubator at 37° C. with shaking (60 rpm). Beads bound by cells appeared as rosettes with a central bead covered by a layer(s) of cells under a microscope. The positive beads were picked with a pipette under inverted microscope, treated with Quanidine HCl (8M, 20 min) to remove cells and proteins on beads surface, and underwent a second round of incubation with the same cells to confirm the binding. Only those beads with cell bindings at both rounds were sent for the amino acid sequencing as previously described (Peng, et al., Nat Chem Biol, (2006) 2: 381-389).
Whole cell bead binding assay was used to screen libraries for peptides that bind bladder cancer cell cultures (FIG. 1). Approximately 150,000 library beads (peptides) were screened against each of 4 bladder cancer cell lines (three transitional cell carcinoma (TCC) lines: T24, TCCSUP and 5637, and one squamous cell line SCaBER). […]

normal urothelial cells = test: Whole cell bead binding assay, normal urothelial cells; parameters: species or system human; details: peptide on OBOC beads
Experimental: Four bladder cancer cell lines including 5637 (HTB-9), SCaBER, TCCSUP (HTB-5), and T24 (HTB-4) were purchased from the American Type Culture Collection (Manassas, Va.). The isolation, characterization and maintenance of normal urothelial cells was previously described in detail (Bagai, et al., J Biol Chem, (2002) 277: 23828-23837). Normal peripheral blood mononuclear cells were prepared by using the Ficoll-Paque gradient method from peripheral blood of healthy donors. Bladder cancer tissue obtained from cystectomy was cut into pieces, digested with collagenase at 37° C. for 1-2 hours per the manufacturer's protocol, and filtered through a 40-μm strainer to make single cell suspension. Tumor cells were then isolated with Ficoll-Paque gradient method (800 g, 30 min at 4° C.). Informed consent was obtained from each patient or healthy donor before specimens were collected.
The beads were washed extensively with double-distilled water and phosphate-buffered saline (PBS) before screening. Bladder cancer cells and normal urothelial cells were detached from culture dishes with trypsin/EDTA or a Detach kit (PromoCell, Heidelberg, Germany), washed with their corresponding culture medium, resuspended at 10^6 cells/ml and incubated with OBOC beads in Petri dishes in a humidified CO2 incubator at 37° C. with shaking (60 rpm). […]

5637 TCC cancer cells = test: Bead binding to 5637 cells in urine at pH 6.0; parameters: species or system human; details: urine at pH 6.0, 4 hours, 37° C.
Experimental: The acidic environment in urine may change the 3-D structure of ligands and affect ligand binding. Here it was determined if the cancer-specific beads could bind to 5637 TCC cancer cells in urine. Cells were incubated with beads in urine at pH 6.0 for 4 hours at 37° C. 4-hour incubation was used to mimic the in vivo urine retention in patients and to permit conformational changes and protease digestion.

[5] = test system: vascular endothelial cells; test: Binding to vascular endothelial cells
K9TCC-PU-In = test: Binding affinity by PLZ4-biotin / avidin-HRP on fixed K9TCC-PU-In cells; parameters: species or system canine; details: restated in b239 without cell line, read-out: Kd50
Experimental: as §1, §2

cQDGRMGFc ([dC]QDGRMGF[dC]; disulfide 1-9 (inferred)) [PLZ4, bladder cancer-specific ligand peptide]
binding to 12 cell lines with different origins [1]: did not bind to 10 out of 12 cell lines; also recorded: only bought to one of 12
binding to cells from urine of patients actively treated with BCG [2]: did not bind
binding to parental K562 cells or cells transfected with other integrins [3]: not to the parental K562 cells or cells transfected other integrins
Kd (K9TCC-PU): 21.3 µM
binding to bladder TCC cell lines [4]: bound to all three bladder TCC cell lines
binding to normal urothelial cells (normal urothelial cells): did not bind
binding to 5637 cells in urine (5637 TCC cancer cells): still able to bind cells in urine
binding to vascular endothelial cells [5]: did not bind
Kd (K9TCC-PU-In): 10.3 µM

From US10335365B2, “Bladder cancer specific ligand peptides” (The Regents of the University of California, priority 2009, dated 2019)
